Reference: patent publication US20160193299A1, “MODIFIED NUCLEOSIDE, NUCLEOTIDE, AND NUCLEIC ACID COMPOSITIONS” (Moderna Therapeutics, Inc., priority 2011, published 2016)
Each block holds one molecule with its values, some of them ahead of it.

Assays:
TNF-alpha = experiment: Example 46A percent-modified G-CSF mRNA transfected in PBMC, TNF-alpha ELISA; assay type: cell-based, human
Method: The supernatant was harvested and run by ELISA 22 hours after transfection to determine the protein expression.

mice = experiment: In vivo cytokine expression study (serum IFN-alpha); conditions: mouse serum; I.M. 200 ug mRNA; after 8 hours
Method: After 8 hours serum was collected from the mice and analyzed for interferon-alpha (IFN-alpha) expression.

IFN-alpha = experiment: Example 45 cytokine study in PBMC, IFN-alpha ELISA; assay type: cell-based, human; conditions: for IFN-alpha signal - 2 donor average: PBMC
Method: (§1) The plates were then incubated at 37 C.
(§2) Each condition was done in duplicate.
(§3) Shown in Tables 69 and 70 are the average from 2 separate PBMC donors of the G-CSF and IFN-alpha production over time as measured by specific ELISA.

Female BALB/C mice = experiment: In vivo detection of innate immune response: human G-CSF and mouse IFN-alpha in serum after I.M. injection; conditions: I.M., 8 hours after dosing
Method: Blood is collected at 8 hours after dosing and using ELISA the protein levels of G-CSF and interferon-alpha (IFN-alpha) is determined by ELISA and are shown in Table 81.

Factor IX protein = experiment: Factor IX mRNA transfected in serum-free media (2D HPLC / MALDI peptide detection); assay type: cell-based, Human; conditions: 8 peptides detected, 7 unique to Factor IX
Description: The cell culture supernatant was collected and subjected to trypsin digestion before undergoing 2-dimensional HPLC separation of the peptides. Matrix-assisted laser desorption/ionization was used to detect the peptides. 8 peptides were detected and 7 of the detected peptides are unique to Factor IX.

[1] = tested on: female Sprague Dawley rats; experiment: In vivo delivery of modified RNA: G-CSF protein in rat serum (I.M.); conditions: I.M. 400 ug in 100 ul, 5% sucrose, 8 hours after injection
Method: Protein production of modified mRNA was evaluated by delivering modified G-CSF mRNA or modified Factor IX mRNA to female Sprague Dawley rats (n=6). […] Blood was collected 8 hours after injection and the G-CSF protein level in serum was measured by ELISA.

mouse myoblast (C2C12) = experiment: Example 44 signal sequence exchange study, secreted G-CSF ELISA; assay type: cell-based; conditions: MM, 250 ng modified mRNA, supernatant after 24 hrs
Description: (§4) These variants included the G-CSF constructs encoding either the wild-type N terminal secretory signal peptide sequence ([…]; SEQ ID NO: 21), no secretory signal peptide sequence, or secretory signal peptide sequences taken from other mRNAs. These included sequences where the wild type GCSF signal peptide sequence was replaced with the signal peptide sequence of either: human α-1-anti trypsin (AAT) ([…]; SEQ ID NO: 22), human Factor IX (FIX) ([…]; SEQ ID NO: 23), human Prolactin (Prolac) ([…]; SEQ ID NO: 24), or human Albumin (Alb) ([…]; SEQ ID NO: 25).
(§5) 250 ng of modified mRNA encoding each G-CSF variant was transfected into HEK293A (293A in the table), mouse myoblast (MM in the table) (C2C12, CRL-1772, ATCC) and rat myoblast (RM in the table) (L6 line, CRL-1458, ATCC) cell lines in a 24 well plate using 1 ul of Lipofectamine 2000 (Life Technologies), each well containing 300,000 cells. […] The data shown in Table 68 reveal that cells transfected with G-CSF mmRNA encoding the Albumin signal peptide secrete at least 12 fold more G-CSF protein than its wild type counterpart.

rat myoblast (L6 line) = experiment: as above; assay type: cell-based; conditions: RM, 250 ng modified mRNA, supernatant after 24 hrs
Description: as §4, §5

HEK293A = experiment: as above; assay type: cell-based, human; conditions: 293A, 250 ng modified mRNA, supernatant after 24 hrs
Description: as §4, §5

Factor IX [2] = experiment: Example 16 lipid nanoparticle in vivo study, serum Factor IX ELISA; design: species or system mice
Method: Mice were sacrificed at 8 hrs after dosing. […] Protein expression was determined by ELISA.
As used in Table 30, the symbol “˜” means about.

Factor IX [3] = experiment: Example 39 in vivo study of Factor IX mmRNA IM, serum Factor IX; conditions: mice IM, 2×100 ug/mouse, 13 hours
Method: Human Factor IX mmRNA (Gen1; fully modified 5-methycytosine and pseudouridine) formulated in formulation buffer was delivered to mice via intramuscular injection.
The mice were bled at 13 hours after the intramuscular injection to determine the concentration of human the polypeptide in serum in pg/mL.

neutrophil count = experiment: Example 40 multi-site IM and SC administration of G-CSF mRNA, neutrophil count; assay type: in vivo; conditions: mice, day 3
Method: Injection of four doses or 2×50 ug (two sites) daily for three days (24 hrs interval) was performed. The fourth dose was administered 6 hrs before blood collection and CBC analysis. […] The mice were bled at 72 hours after the first mRNA injection (6 hours after the last mRNA dose) to determine the effect of mRNA-encoded human G-CSF on the neutrophil count. The dosing regimen is shown in Table 63 as are the resulting neutrophil counts (thousands/uL). In Table 63, an asterisks (*) indicate statistical significance at p<0.05.

human PBMC = experiment: Example 45 cytokine study in PBMC, G-CSF production ELISA; assay type: cell-based; conditions: Lipofectamine 2000
Method: as §1, §2, §3
In the G-CSF ELISA, background signal from the Lipofectamine 2000 untreated condition was subtracted at each timepoint. […] Many other cytokines were not affected by either modification.

human G-CSF = experiment: Example 32C human G-CSF modified RNA lipoplex vs saline comparison IM/SC, serum G-CSF ELISA; assay type: in vivo, C57/BL6 mice; conditions: mouse serum, I.M. or S.C., 13 hours
Method: A formulation containing 100 μg of either modified human G-CSF mRNA lipoplexed with 30% by volume of RNAIMAX™ with a 5-methylcytosine (5mc) and a pseudouridine (ψ) modification (G-CSF-Gen1-Lipoplex), modified human G-CSF mRNA with a 5mc and w modification in saline (G-CSF-Gen1-Saline), modified human G-CSF mRNA with a N1-5-methylcytosine (N1-5mc) and a w modification lipoplexed with 30% by volume of RNAIMAX™ (G-CSF-Gen2-Lipoplex), modified human G-CSF mRNA with a N1-5mc and ψ modification in saline (G-CSF-Gen2-Saline), modified luciferase with a 5mc and ψ modification lipoplexed with 30% by volume of RNAIMAX™ (Luc-Lipoplex), or modified luciferase mRNA with a a 5mc and ψ modification in saline (Luc-Saline) was delivered intramuscularly (I.M.) or subcutaneously (S.C.) and a control group for each method of administration was giving a dose of 80 uL of the formulation buffer (F. Buffer) to C57/BL6 mice. 13 hours post injection serum and tissue from the site of injection were collected from each mouse and analyzed by G-CSF ELISA to compare human G-CSF protein levels. The results of the human G-CSF protein in mouse serum from the intramuscular administration and the subcutaneous administration results are shown in Table 55.

TNF-alpha Expression (TNF-alpha): 256.6 pg/mL
IFN-alpha signal - 2 donor average (IFN-alpha; 2 Hr): 39.1 pg/mL
IFN-alpha signal - 2 donor average (IFN-alpha; 4 Hr): 151.3 pg/mL
IFN-alpha signal - 2 donor average (IFN-alpha; 8 Hr): 278.4 pg/mL
IFN-alpha signal - 2 donor average (IFN-alpha; 20 Hr): 362.2 pg/mL
IFN-alpha signal - 2 donor average (IFN-alpha; 44 Hr): 208.1 pg/mL
Molecule: CCOCc1nc2c(N)nc3ccccc3c2n1CC(C)(C)O [Formulation R-848, reference compound]
IFN-alpha (mice): 40.971 pg/mL
G-CSF protein (Female BALB/C mice; human G-CSF in mouse serum, 200 ug/mouse mRNA (R848 75 ug) in 5% sucrose): 3.4 pg/mL
IFN-alpha expression (Female BALB/C mice; mouse IFN-alpha in serum, 200 ug/mouse mRNA (R848 75 ug)): 40.97 pg/mL

Molecule: Factor IX Gen 1: Factor IX mRNA SEQ ID NO: 10, Cap1, fully modified with 5-methylcytosine and pseudouridine
expression of Factor IX protein (Factor IX protein): able to express full-length Factor IX protein
G-CSF protein [1]: 2.25 pg/mL

Molecule: Factor IX: human Factor IX mRNA SEQ ID NO: 10, polyA ~160 nt, Cap1, fully modified with 5-methylcytosine and pseudouridine
secreted G-CSF protein (mouse myoblast (C2C12)): 6175 pg/mL
secreted G-CSF protein (rat myoblast (L6 line)): 11675 pg/mL
secreted G-CSF protein (HEK293A): 11675 pg/mL
Factor IX Serum Concentration 8-12 hours after administration (Factor IX [2]; IM, 2 × 100 ug): ~1.6 ng/mL
Factor IX Serum Concentration 8-12 hours after administration (Factor IX [2]; IV (LNP), 1 ug): ~40 ng/mL
Factor IX Serum Concentration 8-12 hours after administration (Factor IX [2]; IV (LNP), 10 ug): ~400 ng/mL
Factor IX Serum Concentration 8-12 hours after administration (Factor IX [2]; IV (LNP), 100 ug): ~3,000-10,000 ng/ml
Factor IX Protein Expression, Conc (Factor IX [2]; mice IV LNP, 10 ug, serum 8 hrs): 383.04 ng/mL
Factor IX Protein Expression, Conc (Factor IX [2]; mice IV LNP, 100 ug, serum 8 hrs, dilution 50x): 3247.75 ng/mL
Factor IX Protein Expression, Conc (Factor IX [2]; mice IV LNP, 100 ug, serum 8 hrs, dilution 250x): 11177.20 ng/mL
Factor IX protein expression (Factor IX [2]; mice IV LNP, 100 ug, serum 8 hrs, range given in text): 3000 to 11000 ng/mL
Factor IX in serum (Factor IX [3]): 1600 pg/mL

B1: Gen2 G-CSF mRNA: human G-CSF mRNA SEQ ID NO: 6 fully modified with 5-methylcytosine and N1-methylpseudouridine (nucleic acid, listed as Homo sapiens)
chain: GGGAAAUAAGAGAGAAAAGAAGAGUAAGAAGAAAUAUAAGAGCCACCAUGGCCGGUCCCGCGACCCAAAGCCCCAUGAAACUUAUGGCCCUGCAGUUGCUGCUUUGGCACUCGGCCCUCUGGACAGUCCAAGAAGCGACUCCUCUCGGACCUGCCUCAUCGUUGCCGCAGUCAUUCCUUUUGAAGUGUCUGGAGCAGGUGCGAAAGAUUCAGGGCGAUGGAGCCGCACUCCAAGAGAAGCUCUGCGCGACAUACAAACUUUGCCAUCCCGAGGAGCUCGUACUGCUCGGGCACAGCUUGGGGAUUCCCUGGGCUCCUCUCUCGUCCUGUCCGUCGCAGGCUUUGCAGUUGGCAGGGUGCCUUUCCCAGCUCCACUCCGGUUUGUUCUUGUAUCAGGGACUGCUGCAAGCCCUUGAGGGAAUCUCGCCAGAAUUGGGCCCGACGCUGGACACGUUGCAGCUCGACGUGGCGGAUUUCGCAACAACCAUCUGGCAGCAGAUGGAGGAACUGGGGAUGGCACCCGCGCUGCAGCCCACGCAGGGGGCAAUGCCGGCCUUUGCGUCCGCGUUUCAGCGCAGGGCGGGUGGAGUCCUCGUAGCGAGCCACCUUCAAUCAUUUUUGGAAGUCUCGUACCGGGUGCUGAGACAUCUUGCGCAGCCGUGAAGCGCUGCCUUCUGCGGGGCUUGCCUUCUGGCCAUGCCCUUCUUCUCUCCCUUGCACCUGUACCUCUUGGUCUUUGAAUAAAGCCUGAGUAGGAAG
modifications: 5mC/N1-methylpseudouridine modified
increase in neutrophil count above control (neutrophil count; intramuscular): two fold increase
increase in neutrophil count above control (neutrophil count; subcutaneous): two fold increase
innate immune recognition, cytokine production (IFN-alpha and others) (IFN-alpha; human PBMC, Lipofectamine 2000): did not significantly increase cytokines
G-CSF production (human PBMC): highest level of G-CSF production
human G-CSF protein production relative to 5-methylcytosine/pseudouridine modified mRNA (human G-CSF): increased human G-CSF protein production
